Legend:
Balb/c mice = assay: Maximum tolerated dose / survival in mice; format: in vivo, mouse; details: iv, PTX 33.0 mg·kg^–1, after 14 days
tubulin = assay: Isothermal titration calorimetry with tubulin; format: binding; details: tubulin 180 μM titrated into 25 μM compound
Experimental: ITC experiments were performed using a Nano-ITC (TA Instruments, USA) with all samples degassed for 8 min prior to measurement. Experiments were conducted under stirring at 350 rpm. To account for background signals, control experiments were conducted and subtracted from the test data. The resulting heat values were analyzed using an independent model to extract thermodynamic parameters. For tubulin binding studies, solutions were prepared in PEM buffer containing 5% (v/v) DMSO. In each experiment, 400 μL of the […] was loaded into the sample cell, and 400 μL of PEM buffer with 5% (v/v) DMSO was placed in the reference cell. Tubulin solution (180 μM) was titrated into the sample cell in 25 injections of 2 μL each at 4 °C. A control titration of tubulin into PEM buffer (5% DMSO) was performed to account for dilution effects. To assess interactions between PTP and excipients, PTP dispersions (25 μM) were loaded into the sample cell, and water was used in the reference cell. PEG400 solution (6.0 mg·mL^–1) was titrated into a 2.0 mg·mL^–1 PTP dispersion, and HA (2.7 mg·mL^–1) into a 1.0 mg·mL^–1 PTP dispersion. Both titrations were performed at 25 °C with 25 injections of 2 μL each. Control experiments were performed by titrating PEG400 or HA into water to correct for nonspecific heat effects.

human lung A549 cells = assay: CCK8 antiproliferation assay, A549; format: cell-based; details: A549, 48 h treatment
Experimental: (§1) The mouse breast cancer cell line 4T1 and the human ovarian cancer cell line SKOV3 were cultured in RPMI 1640 medium supplemented with 10% fetal bovine serum, 100 units·mL^–1 penicillin, and 100 μg·mL^–1 streptomycin. The human lung cancer cell line A549 and the luciferase-expressing human colorectal carcinoma cell line HCT116-Luc were cultured in high-glucose DMEM medium supplemented with 10% fetal bovine serum, 100 units·mL^–1 penicillin, and 100 μg·mL^–1 streptomycin. All cell lines were maintained at 37 °C in a Steri-Cycle 371 incubator (Thermo Scientific, USA) with a humidified atmosphere of 5% CO2. Only cells between passages 5 and 15 were used for cell-based experiments.
(§2) The antiproliferative activity of PTP was evaluated using the Cell Counting Kit-8 (CCK8) assay. PTX solution served as a positive control. Cell suspensions were prepared at a density of 3 × 10^4 cells·mL^–1 and seeded in 96-well plates at a volume of 100 μL per well. The plates were incubated for 24 h to allow cell attachment and growth. Subsequently, the culture media were replaced with fresh media containing varying concentrations of PTX or PTP solutions (100 μL per well), and the cells were incubated for an additional 48 h (n = 3). Control wells received fresh culture media alone (n = 3). […] Finally, the absorbance was measured at 450 nm using a microplate reader (Synergy H1, BioTek, USA). […]

[1] = system: human colon HCT116-Luc cells; assay: CCK8 antiproliferation assay, HCT116-Luc; format: cell-based; details: 48 h treatment
Experimental: as §1, §2

[2] = Pharmacokinetics after intraperitoneal injection; format: in vivo; details: male, Sprague-Dawley, rat, plasma; rats, single ip; PTP@HA 100.0 mg·kg^–1 PTP, PTX solution 12.0 mg·kg^–1
Experimental: For plasma samples, 50 μL of plasma was mixed with 100 μL of a docetaxel acetonitrile solution (15 ng·mL^–1) for protein precipitation. The mixture was vortexed and then centrifuged at 4 °C, 17 000 rpm for 30 min. For tissue samples, mice were euthanized at specified time points, and tissues were harvested and rinsed with saline. Two kidneys, the entire heart, spleen, lung, tumor, and 150–200 mg of liver were placed in grinding tubes. Saline was added at a ratio of 1:5 (m/v), and the tissues were ground using a freezing grinder (Jingxin, China) at 4 °C. Next, 100 μL of docetaxel acetonitrile solution (15 ng·mL^–1) was added to 50 μL of the tissue homogenate. After vortex mixing, the mixture was centrifuged at 4 °C, 17 000 rpm for 30 min. The supernatants for both plasma and tissue samples were analyzed by LC-MS as described below.
The concentrations of PTP and PTX in plasma and tissue samples were determined using liquid chromatography–mass spectrometry (LC-MS) with a G6470A system (Agilent, USA) equipped with a C18 column (2.1 × 100 mm, 2.7 μm, Agilent, USA). […]
The PTP@HA hydrogel, containing PTP at a concentration of 5.0 mg·mL^–1, was prepared by adding HA saline solution (20.0 mg·mL^–1) to solid PTP, followed by vortexed for 1 min. […] Plasma concentrations of both PTP and PTX were subsequently quantified using LC-MS (G6470A, Agilent, USA).

[3] = system: human ovarian SKOV3 cells; assay: CCK8 antiproliferation assay, SKOV3; format: cell-based; details: SK-OV-3, SKOV3, 48 h treatment
Experimental: as §1, §2

mouse breast 4T1 cells = assay: CCK8 antiproliferation assay, 4T1; format: cell-based; details: 4T1, 48 h treatment
Experimental: as §1, §2

For `CC(=O)O[C@H]1C(=O)[C@@]2(C)[C@H]([C@H](OC(=O)c3ccccc3)[C@]3(O)C[C@H](OC(=O)[C@H](O)[C@@H](NC(=O)c4ccccc4)c4ccccc4)C(C)=C1C3(C)C)[C@]1(OC(C)=O)CO[C@@H]1C[C@@H]2O` [PTX, Paclitaxel], the survival (Balb/c mice) was 83.3%, the “molar ratio of tubulin to compound” value (tubulin; ITC) was 1.5 and the “Gibbs free energy change (ΔG)” value (tubulin; 5% DMSO, 4 °C) was −27.0 kJ·mol^–1. It also gave an IC50 (human lung A549 cells) of 0.0113 µM, an IC50 [1] of 0.0131 µM and an MRT [2] of 4.4 h. It also gave a half-life [2] of 3.2 h, an IC50 [3] of 0.0374 µM and an IC50 (mouse breast 4T1 cells) of 0.0259 µM.
